This is an account of results in paper PMC12207590, “Substrate Specificity of the Organic Cation Transporters MATE1 and MATE2K and Functional Overlap with OCT1 and OCT2” (Journal of Medicinal Chemistry, 2025).

Read-outs that look alike come from different tables or passages of the source.

One test concerns the target MATE2K (Homo sapiens, UniProt Q86VL8). The test can be described thus: Uptake ratio in MATE2K-overexpressing HEK293 cells vs empty vector (2.5 μM, 1 min, HPLC-MS/MS). To be noted: for MATE2K ratio in this study: Table S1. It is filed as cell-based.
A further test has as its target T1, MATE1 (Homo sapiens, UniProt Q96FL8).
T1 sequence (Q96FL8 1-570): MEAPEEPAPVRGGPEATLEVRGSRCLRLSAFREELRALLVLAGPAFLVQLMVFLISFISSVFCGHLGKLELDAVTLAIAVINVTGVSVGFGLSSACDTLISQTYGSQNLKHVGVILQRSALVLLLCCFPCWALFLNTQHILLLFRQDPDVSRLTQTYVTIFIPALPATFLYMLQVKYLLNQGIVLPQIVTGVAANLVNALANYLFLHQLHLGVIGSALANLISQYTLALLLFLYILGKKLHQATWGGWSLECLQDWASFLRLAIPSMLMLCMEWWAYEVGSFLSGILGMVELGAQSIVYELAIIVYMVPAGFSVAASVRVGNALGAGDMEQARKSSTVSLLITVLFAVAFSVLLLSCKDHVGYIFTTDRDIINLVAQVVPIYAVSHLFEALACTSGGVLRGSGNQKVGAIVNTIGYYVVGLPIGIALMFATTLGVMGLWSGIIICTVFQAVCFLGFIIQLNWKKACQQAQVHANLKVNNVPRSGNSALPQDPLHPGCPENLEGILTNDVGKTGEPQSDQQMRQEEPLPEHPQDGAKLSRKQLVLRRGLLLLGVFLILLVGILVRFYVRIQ
The test can be described thus: Uptake ratio in MATE1-overexpressing HEK293 cells vs empty vector (2.5 μM, 1 min, HPLC-MS/MS). It is filed as cell-based. The conditions noted are these: for MATE1 ratio in this study: Table S1.

Where [1] appears, read: fold uptake over empty vector, 2.5 μM, 1 min.

Chain of MATE2K (Q86VL8 1-566 isoform Q86VL8-3): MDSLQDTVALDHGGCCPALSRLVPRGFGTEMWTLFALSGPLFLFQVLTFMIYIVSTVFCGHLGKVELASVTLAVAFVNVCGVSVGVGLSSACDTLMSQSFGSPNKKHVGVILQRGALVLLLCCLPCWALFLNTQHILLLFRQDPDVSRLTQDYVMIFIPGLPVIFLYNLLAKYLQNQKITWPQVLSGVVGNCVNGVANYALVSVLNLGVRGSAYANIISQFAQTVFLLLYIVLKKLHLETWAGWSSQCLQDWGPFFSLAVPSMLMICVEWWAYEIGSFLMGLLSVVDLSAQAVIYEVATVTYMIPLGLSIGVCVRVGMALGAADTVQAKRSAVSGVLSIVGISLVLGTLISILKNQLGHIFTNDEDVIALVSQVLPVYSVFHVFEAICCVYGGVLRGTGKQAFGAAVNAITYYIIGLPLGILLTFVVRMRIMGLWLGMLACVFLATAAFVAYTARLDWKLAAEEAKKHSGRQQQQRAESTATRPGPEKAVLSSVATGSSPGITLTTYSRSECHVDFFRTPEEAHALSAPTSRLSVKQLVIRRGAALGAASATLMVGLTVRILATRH

`N=C(N)NC(=O)Cc1c(Cl)cccc1Cl` [Guanfacine]: the MATE2K ratio on MATE2K (setting [1]) is on record as 1.37. Moreover, the MATE1 ratio on MATE1 (setting [1]) was 1.60.
In the case of `CNCC(O)c1ccccc1` (stereo not shown) [Halostachine], the MATE2K ratio at MATE2K (setting [1]) is 1.52. Besides, the MATE1 ratio on MATE1 (setting [1]) is recorded as 1.41.
On to `COc1ccc2c3c([nH]c2c1)C(C)=NCC3` [Harmaline], for which the MATE2K ratio on MATE2K came out at 1.15. For the same molecule, on MATE1, the MATE1 ratio is given as 1.19.
For `CCCCCCCN` [Heptylamine], in that order: 1.60 and 1.18.
Consider `CCCCCC(=O)OC(CC(=O)[O-])C[N+](C)(C)C` (stereo not shown) [Hexanoylcarnitine], for which the MATE2K ratio on MATE2K (setting [1]) amounted to 1.01. For the same molecule, on MATE1 (setting [1]), the MATE1 ratio was determined as 1.02.
The corresponding values for `Oc1ccc(CC2NCCc3cc(O)c(O)cc32)cc1` (stereo not shown) [Higenamine] are 11.27 and 14.55.
For `NCCc1c[nH]cn1` [Histamine], in that order: 1.40 and 19.90.
With `NC(N)=NCCCC[C@H](N)C(=O)O` [Homoarginine], the MATE2K ratio on MATE2K is reported as 0.97. The MATE1 ratio on MATE1 is listed as 0.97.
For the molecule `CN(C)CCc1ccc(O)cc1` [Hordenine], on MATE2K, the MATE2K ratio stood at 1.20. The MATE1 ratio at MATE1 was found to be 1.16.
For `CC(NC(C)(C)CO)C(=O)c1cccc(Cl)c1` (stereo not shown) [Hydroxybupropion], in that order: 1.51 and 1.09.
For `O=P1(NCCCl)OCCCN1CCCl` (stereo not shown) [Ifosfamide], in that order: 1.17 and 1.24.
With `CCc1cc2c(cc1CC)CC(NC[C@H](O)c1ccc(O)c3[nH]c(=O)ccc13)C2` [Indacaterol], the MATE2K ratio on MATE2K (setting [1]) stood at 1.88. The MATE1 ratio on MATE1 (setting [1]) was 1.98.
The corresponding values for `CC(C)C(=O)O[C@H](CC(=O)[O-])C[N+](C)(C)C` [Isobutyrylcarnitine] are 1.35 and 1.40.
For `CCC(NC(C)C)C(O)c1ccc(O)c(O)c1` (stereo not shown) [Isoetharine], on MATE2K (setting [1]), the MATE2K ratio was 1.85. The MATE1 ratio on MATE1 (setting [1]) is reported as 5.65.
The corresponding values for `CC(C)NCC(O)c1ccc(O)c(O)c1` (stereo not shown) [Isoprenaline] are 4.67 and 16.78.
The corresponding values for `COc1cc2c(cc1OC)CC(=O)N(CCCN(C)C[C@H]1Cc3cc(OC)c(OC)cc31)CC2` [Ivabradine] are 1.23 and 1.14.
Turning to `O=C(C[S+]([O-])Cc1ccco1)NC/C=C\COc1cc(CN2CCCCC2)ccn1` (stereo not shown) [Lafutidine], the MATE2K ratio on MATE2K (setting [1]) worked out at 1.48. Further, the MATE1 ratio at MATE1 (setting [1]) is 1.41.
For `CC1(C)OC[C@@H](COC(=O)CCc2ccc(OC[C@@H](O)CNCCNC(=O)N3CCOCC3)cc2)O1` [Landiolol], in that order: 2.87 and 3.68.
Regarding `Nc1cccc2c1CN(C1CCC(=O)NC1=O)C2=O` (stereo not shown) [Lenalidomide], on MATE2K (setting [1]), the MATE2K ratio turned out to be 1.53. Besides, on MATE1 (setting [1]), the MATE1 ratio worked out at 1.78.
Turning to `CC(C)C[C@H](N)C(=O)O` [Leucine], the MATE2K ratio on MATE2K (setting [1]) turned out to be 1.06. Further, the MATE1 ratio on MATE1 (setting [1]) stood at 1.18.
The corresponding values for `N[C@@H](Cc1ccc(O)c(O)c1)C(=O)O` [Levodopa] are 1.01 and 0.71.
As for `NCCCC[C@H](N)C(=O)O` [Lysine], on MATE2K, the MATE2K ratio was 1.05. The MATE1 ratio on MATE1 is reported as 1.13.
Regarding `CNCCCC12CCC(c3ccccc31)c1ccccc12` [Maprotiline], the MATE2K ratio at MATE2K (setting [1]) was 1.04. In addition, the MATE1 ratio on MATE1 (setting [1]) was 1.17.
With `O=C1CCC[C@@H]2[C@H]3CCCN4CCC[C@@H](CN12)[C@@H]34` [Matrine], the MATE2K ratio on MATE2K stood at 1.27. The MATE1 ratio at MATE1 is reported as 1.03.
As for `CNC1(C)C2CCC(C2)C1(C)C` (stereo not shown) [Mecamylamine], on MATE2K (setting [1]), the MATE2K ratio came to 1.05. Also, the MATE1 ratio on MATE1 (setting [1]) amounted to 1.20.
For `C[N+]1(C)CCCC(OC(=O)C(O)(c2ccccc2)c2ccccc2)C1.[Br-]` (stereo not shown) [Mepenzolate], in that order: 1.72 and 23.89.
The corresponding values for `C[C@](N)(Cc1ccc(O)c(O)c1)C(=O)O` [Methyldopa] are 1.15 and 1.04.
`COC(=O)[C@@H]1[C@H]2CC[C@@H](C[C@@H]1O)N2C` [Methylecgonine]: the MATE2K ratio on MATE2K was 1.36. Besides, at MATE1, the MATE1 ratio was found to be 1.54.
The corresponding values for `CN(C)c1ccc2nc3ccc(=[N+](C)C)cc-3sc2c1` [Methylene blue] are 1.55 and 2.36.
For the molecule `CCNC(C)Cc1ccc2c(c1)OCO2` (stereo not shown) [Methylenedioxyethamphetamine], the MATE2K ratio at MATE2K is on record as 1.39. The MATE1 ratio at MATE1 is on record as 1.07.
Turning to `CNC(=O)c1cccnc1` [Methylnicotinamide, N-Methylnicotinamide], the “MATE2K ratio in this study” value on MATE2K (2.5 μM, 1 min) was found to be 5.40. The MATE2K ratio on MATE2K (setting [1]) was determined as 5.40. For the same molecule, on MATE1 (2.5 μM, 1 min), the “MATE1 ratio in this study” value worked out at 33.89. The MATE1 ratio at MATE1 (setting [1]) is reported as 33.89.
With `CC(=O)Oc1c(C)cc(OCC(O)CNC(C)C)c(C)c1C` (stereo not shown) [Metipranolol], the MATE2K ratio at MATE2K (setting [1]) is on record as 1.17. Moreover, the MATE1 ratio on MATE1 (setting [1]) turned out to be 1.21.
The corresponding values for `Clc1ccc(COC(Cn2ccnc2)c2ccc(Cl)cc2Cl)c(Cl)c1` (stereo not shown) [Miconazole] are 1.50 and 1.33.
Turning to `COc1nc(C)nc(Cl)c1N=C1NCCN1` [Moxonidine], the MATE2K ratio at MATE2K (setting [1]) is reported as 1.78. Besides, on MATE1 (setting [1]), the MATE1 ratio was determined as 2.02.
The corresponding values for `CC(=O)N[C@@H](CS)C(=O)O` [N-Acetyl-L-cysteine] are 0.95 and 1.02.
Regarding `CNCCCC1(c2ccc(F)cc2)OCc2cc(C#N)ccc21` (stereo not shown) [N-Desmethylcitalopram], at MATE2K, the MATE2K ratio worked out at 1.09. Also, the MATE1 ratio on MATE1 came out at 1.09.
Take `CNCc1ccc(CSCCN/C(=C/[N+](=O)[O-])NC)o1` [N-Desmethylranitidine]: on MATE2K (setting [1]), the MATE2K ratio is 14.02. On MATE1 (setting [1]), the MATE1 ratio is reported as 23.54.
The corresponding values for `CNCCc1ccccc1` [N-Methyl-2-phenylethylamine] are 1.50 and 1.27.
As to `CNCCc1ccc(O)cc1` [N-Methyl-p-Tyramine], the MATE2K ratio at MATE2K was determined as 1.39. Besides, on MATE1, the MATE1 ratio is reported as 3.11.
Regarding `CNCCc1c[nH]c2ccc(O)cc12` [N-Methylserotonin], on MATE2K, the MATE2K ratio is reported as 8.85. Besides, on MATE1, the MATE1 ratio is given as 26.34.
For the molecule `CN(C)C(N)=NCCC[C@H](N)C(=O)O` [NN-Dimethylarginine], the MATE2K ratio at MATE2K (setting [1]) is recorded as 0.93. Moreover, the MATE1 ratio on MATE1 (setting [1]) was 0.97.
As to `CC(C)(C)NCC(O)COc1cccc2c1CC(O)C(O)C2` (stereo not shown) [Nadolol], the “MATE2K ratio in this study” value on MATE2K (2.5 μM, 1 min) is 10.12. At MATE2K (setting [1]), the MATE2K ratio worked out at 10.12. Also, the “MATE1 ratio in this study” value on MATE1 (2.5 μM, 1 min) came to 9.41. Further, on MATE1 (setting [1]), the MATE1 ratio is 9.41.
With `CNS(=O)(=O)CCc1ccc2[nH]cc(C3CCN(C)CC3)c2c1` [Naratriptan], the MATE2K ratio on MATE2K (setting [1]) was found to be 8.34. On MATE1 (setting [1]), the MATE1 ratio came out at 10.81.
Consider `OC(CNCC(O)C1CCc2cc(F)ccc2O1)C1CCc2cc(F)ccc2O1` (stereo not shown) [Nebivolol], for which, at MATE2K (setting [1]), the MATE2K ratio amounted to 1.45. The MATE1 ratio on MATE1 (setting [1]) is listed as 1.41.
For `CCc1nn(CCCN2CCN(c3cccc(Cl)c3)CC2)c(=O)n1CCOc1ccccc1` [Nefazodone], in that order: 1.24 and 1.34.
For `O=C(O)c1cccnc1` [Niacin], in that order: 0.90 and 1.06.
For `CNC(=C[N+](=O)[O-])NCCSCc1csc(CN(C)C)n1` [Nizatidine], the MATE2K ratio on MATE2K (setting [1]) worked out at 10.42. Further, the MATE1 ratio at MATE1 (setting [1]) was determined as 11.88.
As for `CC(N)Cc1cccc(C(F)(F)F)c1` (stereo not drawn) [Norfenfluramine (+), Norfenfluramine], the MATE2K ratio at MATE2K turned out to be 1.45. The MATE1 ratio at MATE1 worked out at 1.22.
Take `NCC(O)c1cccc(O)c1` (stereo not shown) [Norphenylephrine]: the MATE2K ratio on MATE2K (setting [1]) is given as 1.22. Moreover, the MATE1 ratio at MATE1 (setting [1]) is recorded as 26.13.
Take `C[C@@H]1Cc2c(Cl)cc(C(=O)N[C@@H](Cc3ccccc3)C(=O)O)c(O)c2C(=O)O1` [Ochratoxin A]: the MATE2K ratio at MATE2K is listed as 1.28. Further, on MATE1, the MATE1 ratio is on record as 3.12 and the “substrate of MATE1” value is recorded as “substrates of MATE1”.
With `NCC(O)c1ccc(O)cc1` (stereo not shown) [Octopamine], the MATE2K ratio on MATE2K (setting [1]) is recorded as 1.43. Also, the MATE1 ratio on MATE1 (setting [1]) is 20.87.
The corresponding values for `COc1ccc(CC(C)(C)NC[C@H](O)c2cc(O)cc3c2OCC(=O)N3)cc1` [Olodaterol] are 6.19 and 3.34.
The corresponding values for `CCOC(=O)C1=C[C@@H](OC(CC)CC)[C@H](NC(C)=O)[C@@H](N)C1` [Oseltamivir] are 1.04 and 1.18.
The corresponding values for `C=CCOc1ccccc1OCC(O)CNC(C)C` (stereo not shown) [Oxprenolol] are 1.20 and 1.05.
As to `Cc1cc(C(C)(C)C)c(O)c(C)c1CC1=NCCN1` [Oxymetazoline], the MATE2K ratio on MATE2K (setting [1]) is listed as 2.29. Besides, the MATE1 ratio at MATE1 (setting [1]) is recorded as 5.22.
